From article PMC7396449, “Biochemical determinants of the IGFBP‐3–hyaluronan interaction” (FEBS Open Bio, 2020)
Ends that are not written are not given here.

Columns and labels:
[1] = molecular target: T1, IGFBP‐3 Glycosylated/Reduced (Homo sapiens, UniProt P17936); assay: ELISA binding of biotin-HA or biotin-HN to immobilized glycosylated/reduced IGFBP-3; conditions: glycosylated/reduced (TCEP, NEM) IGFBP-3 (50 nM) coated; 0–2 μM biotin-ligand, overnight 4 °C; mean ± SD of three independent experiments in triplicate; read-out: concentration of biotin-HA or biotin-HN that produced 50% of maximum binding
T1 construct: We therefore elected to use the full‐length IGFBP‐3 protein to examine the effect of glycosylation; His; purchased Speed BioSystems YCP1009
T1 sequence (P17936 28-291): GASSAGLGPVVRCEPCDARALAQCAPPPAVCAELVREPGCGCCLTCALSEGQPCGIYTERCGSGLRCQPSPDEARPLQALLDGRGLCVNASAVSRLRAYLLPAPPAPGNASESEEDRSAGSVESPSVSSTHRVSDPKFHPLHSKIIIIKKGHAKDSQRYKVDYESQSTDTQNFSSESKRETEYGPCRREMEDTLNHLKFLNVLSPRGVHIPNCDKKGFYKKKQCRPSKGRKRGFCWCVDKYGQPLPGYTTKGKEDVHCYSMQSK
Protocol: (§1) ELISA was conducted as we reported previously. Nunc MaxiSorp 96‐well flat‐bottom plates (Thermo Fisher, Waltham, MA, USA) were coated with samples as indicated. The plates were incubated overnight at 4 °C on a shaker to allow binding of the samples to the plate wells. After the incubation, the wells were washed 4× with TBST, filled with 400 µL blocking buffer (110 mM KCl, 5 mM NaHCO3, 5 mM MgCl2, 1 mM EGTA, 0.1 mM CaCl2, 20 mM HEPES, 1% BSA, pH 7.4), and incubated overnight at 4 °C on a shaker. The wells were then washed 4× with TBST, and 100 µL of sample at the desired concentration was added to each well before incubating overnight at 4 °C on a shaker. TBST was then used to wash the wells 4× before proceeding in one of two ways: (a) Biotinylated samples were analyzed by adding 100 µL streptavidin–HRP conjugate in TBST (1 : 2500 dilution) to the samples before incubating for 3 h at RT on a shaker, or (b) samples without biotin were analyzed by adding 100 µL TBST containing the primary antibody at the manufacturer's recommendation and incubating for 3 h at RT on a shaker before washing 4× with TBST. […] The reaction was stopped with 100 µL 2 M H2SO4 after incubating at RT for 0.5–15 min, resulting in a yellow color change that was measured by absorbance at 450 nm. […] Statistical analysis was determined by the GRAPHPAD PRISM 8.4.2 software (San Diego, CA, USA). […]

IGFBP‐3 Nonglycosylated = molecular target: T2, IGFBP‐3 Nonglycosylated (Homo sapiens, UniProt P17936); assay: ELISA binding of biotin-HA or biotin-HN to immobilized nonglycosylated IGFBP-3; conditions: nonglycosylated IGFBP-3 (50 nM) coated; 0–2 μM biotin-ligand, overnight 4 °C; mean ± SD of three independent experiments in triplicate; read-out: concentration of biotin-HA or biotin-HN that produced 50% of maximum binding
T2 construct: We therefore elected to use the full‐length IGFBP‐3 protein to examine the effect of glycosylation; purchased MyBioSource MBS142177
T2 sequence (P17936 28-291): as above
Protocol: as §1

[2] = molecular target: T3, IGFBP‐3 Nonglycosylated/Reduced (Homo sapiens, UniProt P17936); assay: ELISA binding of biotin-HA or biotin-HN to immobilized nonglycosylated/reduced IGFBP-3; conditions: nonglycosylated/reduced (TCEP, NEM) IGFBP-3 (50 nM) coated; 0–2 μM biotin-ligand, overnight 4 °C; mean ± SD of three independent experiments in triplicate; read-out: concentration of biotin-HA or biotin-HN that produced 50% of maximum binding
T3 construct: We therefore elected to use the full‐length IGFBP‐3 protein to examine the effect of glycosylation; purchased MyBioSource MBS142177
T3 sequence (P17936 28-291): as above
Protocol: as §1

IGFBP‐3 Glycosylated = molecular target: T4, IGFBP‐3 Glycosylated (Homo sapiens, UniProt P17936); assay: ELISA binding of biotin-HA or biotin-HN to immobilized glycosylated IGFBP-3; conditions: glycosylated IGFBP-3 (50 nM) coated; 0–2 μM biotin-ligand, overnight 4 °C; mean ± SD of three independent experiments in triplicate; read-out: concentration of biotin-HA or biotin-HN that produced 50% of maximum binding
T4 construct: We therefore elected to use the full‐length IGFBP‐3 protein to examine the effect of glycosylation; His; purchased Speed BioSystems YCP1009
T4 sequence (P17936 28-291): as above
Protocol: as §1

[3] = molecular target: binding of biotin‐HA to immobilized IGFBP‐3; assay: ELISA, competition of CD44 with IGFBP-3 for binding HA; set-up: species or system human; conditions: for IC50: 10 nM glycosylated IGFBP-3 coated, biotin-HA 100 nM incubated 1 h with CD44 0–1000 nM, mean ± SD of three independent experiments in triplicate, read-out: concentration of CD44 that produced 50% of maximum binding (50% inhibition of biotin-HA binding to IGFBP-3)
Protocol: ELISA was conducted as we reported previously. Nunc MaxiSorp 96‐well flat‐bottom plates (Thermo Fisher, Waltham, MA, USA) were coated with samples as indicated. The plates were incubated overnight at 4 °C on a shaker to allow binding of the samples to the plate wells. After the incubation, the wells were washed 4× with TBST, filled with 400 µL blocking buffer (110 mM KCl, 5 mM NaHCO3, 5 mM MgCl2, 1 mM EGTA, 0.1 mM CaCl2, 20 mM HEPES, 1% BSA, pH 7.4), and incubated overnight at 4 °C on a shaker. The wells were then washed 4× with TBST, and 100 µL of sample at the desired concentration was added to each well before incubating overnight at 4 °C on a shaker. TBST was then used to wash the wells 4× before proceeding in one of two ways: (a) Biotinylated samples were analyzed by adding 100 µL streptavidin–HRP conjugate in TBST (1 : 2500 dilution) to the samples before incubating for 3 h at RT on a shaker, or (b) samples without biotin were analyzed by adding 100 µL TBST containing the primary antibody at the manufacturer's recommendation and incubating for 3 h at RT on a shaker before washing 4× with TBST. The secondary antibody in 100 µL TBST was then added to the samples following the manufacturer's recommendation and incubated for 1 h at RT on a shaker. Plates containing either biotinylated or nonbiotinylated samples were then washed 5× with TBST followed by the addition of 100 µL TMB resulting in a blue color change. The reaction was stopped with 100 µL 2 M H2SO4 after incubating at RT for 0.5–15 min, resulting in a yellow color change that was measured by absorbance at 450 nm. To monitor nonspecific binding, negative control wells on the plates included, for example, bound IGFBP‐3 then adding all components, streptavidin–horseradish peroxidase and TMB, but without addition of biotin‐HN. Some wells were coated with 2.5, 10, 50, 100, 500, and 5000 nM biotin‐HN or biotin‐HA to allow conversion of the OD measurements to concentrations of bound material. Before analysis, the OD from the data was corrected for nonspecific binding by subtracting the mean background absorbance for the negative controls. Typically, in control wells incubated on each plate, the background binding is about 10–15% of the maximum binding seen with addition of biotin‐HN or biotin‐HA or antibodies. Statistical analysis was determined by the GRAPHPAD PRISM 8.4.2 software (San Diego, CA, USA). Data were expressed as the mean ± SD. Three to five independent experiments were carried out in triplicate for each assay condition.
Glycosylated recombinant His‐tagged IGFBP‐3 (Speed BioSystems) and nonglycosylated recombinant IGFBP‐3 (MyBioSource, San Diego, CA, USA) were used as reported earlier. Glycosylated human CD44 recombinant protein was purchased from Sino Biological (Wayne, PA, USA). To cleave N‐linked glycans, the proteins were treated with PNGase F for 4 h at 37 °C under nondenaturing conditions according to the manufacturer's specification. To reduce the proteins and following previous protocols, the purified proteins were reduced with TCEP‐HCl (2.5 mM in PBS/1%BSA for 20 min at 4 °C) and then alkylated by 5 mM NEM for 30 min at 4 °C, to permanently block disulfide bond formation. As control, nonreduced samples treated with only 5 mM NEM were used. […]

[4] = tested on: IGFBP‐3 interaction with importin‐β1; conditions: in vitro; cited from earlier work
Description: (§2) Humanin (HN), first discovered by the Nishimoto laboratory, is a mitochondrial‐derived peptide known to bind with high affinity and specificity to the 18‐amino acid residue (215–232) heparin‐binding domain of IGFBP‐3 [54] that also binds HA.

amyloid‐β = conditions: aggregation induced by acetylcholinesterase; cited from earlier work
Description: as §2

[5] = tested on: HFL1 normal human fibroblast cells (CD44-negative); assay: MTT cell viability, HFL1; assay type: cell-based; conditions: protein 50 nM, 48 h, with or without 5F12
Protocol: (§3) HFL1 (ATCC CCL‐153) normal, nontransformed, and nontumorigenic human fibroblast cell line and the human NSCLC cell line, A549 (ATCC CCL‐185), were purchased from the American Type Culture Collection (ATCC, Manassas, VA, USA). Cells were seeded as we reported earlier in 5 mL HyClone Dulbecco's modified Eagle's medium/nutrient mixture F‐12 (DMEM/F12) (GE Healthcare Life Sciences, Pittsburgh, PA, USA), supplemented with 10% Fetalgro bovine growth serum (FBS; RMBIO, Missoula, MT, USA), 50 U·mL^−1 penicillin, and 50 U·mL^−1 streptomycin (Invitrogen Life Technologies, Carlsbad, CA, USA) in 25‐cm^2 tissue culture flasks, and allowed to grow overnight in an incubator at 37 °C, 95% humidity, and 5% CO2. Cells were counted with a hemocytometer after trypan blue staining.
(§4) The MTT reduction assay (Sigma‐Aldrich), used to measure cell viability, was employed as we reported earlier. […] The absorbance was measured at 570 nm in a plate reader. […]
(§5) (A) IGFBP‐3 peptides (50 nM each) were bound to the ELISA plate wells, and then, 200 nM biotin‐HA was added and processed as described in the Materials and methods section. The data were normalized to the control incubated with BSA (control 1), and fold change relative to the control was calculated. […] Cell viability was assessed by the MTT assay. […]

[6] = tested on: A549 human NSCLC cells (CD44-expressing); assay: MTT cell viability, A549; assay type: cell-based; conditions: protein 50 nM, 48 h, with or without 5F12
Protocol: as §3, §4, §5

[7] = after reduction; cited from earlier work
Description: We next tested whether reduction of CD44 affects its ability to compete with IGFBP‐3 for binding HA. […] Reduction of this bond inhibited HA‐CD44 interaction in vitro, and the ability of cells to adhere to HA‐coated surfaces was blocked by pretreatment with reducing agents. Moreover, reductio ...

Q: Which results are given for “Biotin‐HN: biotin-HN (B-018-26, UniProt Q8IVG9), Phoenix Pharmaceuticals; biotinylated humanin”?
A: EC50 [1]: 0.098 ± 0.016 µM; EC50 (IGFBP‐3 Nonglycosylated): 0.092 ± 0.016 µM; EC50 [2]: 0.096 ± 0.012 µM; EC50 (IGFBP‐3 Glycosylated): 0.104 ± 0.014 µM

Q: Which IC50 [3] does the source give for “CD44 Glycosylated/Reduced: glycosylated CD44, reduced with TCEP-HCl then alkylated by NEM” here?
A: Its IC50 is 0.21 ± 0.041 µM.

Q: For “CD44 Glycosylated: Glycosylated human CD44 recombinant protein (Sino Biological)”, which IC50 [3] is on record?
A: Its IC50 is 0.128 ± 0.024 µM.

Q: Which IC50 [3] does the source give for “CD44 Nonglycosylated/Reduced: PNGase F treated CD44, reduced with TCEP-HCl then alkylated by NEM” here?
A: Its IC50 is 0.176 ± 0.037 µM.

Q: With “CD44 Nonglycosylated: human recombinant CD44 treated with PNGase F to cleave N-linked glycans” as the substance, how does the “ability of CD44 to block HA-IGFBP-3 interaction (in words)” value ([3]; 10 nM IGFBP-3 coated, biotin-HA 100 nM) read?
A: The value was “more efficient at inhibiting the binding of biotin‐HA to immobilized IGFBP‐3 than glycosylated CD44”.

Q: What about the IC50 [3] of the same substance?
A: Its IC50 is 0.009 ± 0.002 µM.

Q: Which results are given for “HN: mitochondrial-derived peptide binding the 18-amino acid residue (215–232) heparin-binding domain of IGFBP-3 (MAPRGFSCLLLLTSEIDLPVKRRA-NH2; UniProt Q8IVG9 1-24, looked up)”?
A: effect on IGFBP-3–importin-β1 interaction (in words) [4]: blocks its interaction with importin‐β1 in vitro; effect on amyloid-β aggregation (in words) (amyloid‐β): aggregation of amyloid‐β induced by acetylcholinesterase is blocked by the presence of HN

Q: For “glycosylated IGFBP‐3 protein: Glycosylated recombinant His-tagged IGFBP-3 (Speed BioSystems)”, which “HFL1 cell viability, IGFBP-3 proteins (in words)” value [5] is on record?
A: Its value is “lack of effect”.

Q: What about the “A549 cell viability, IGFBP-3 proteins (in words)” value [6] of the same substance?
A: The value was “a comparable decrease in A549 cell viability”.

Q: For “nonglycosylated IGFBP‐3 protein: nonglycosylated recombinant IGFBP-3 (MyBioSource)”, which “HFL1 cell viability, IGFBP-3 proteins (in words)” value [5] is on record?
A: The value was “lack of effect”.

Q: And the “A549 cell viability, IGFBP-3 proteins (in words)” value [6]?
A: The value was “a comparable decrease in A549 cell viability”.

Q: Which “effect of reduction on ability of CD44 to bind HA (in words)” value [7] does the source give for “recombinant soluble CD44: recombinant soluble CD44 of ref 47” here?
A: Its value is “inhibit its ability to bind HA”.
